Here are results for ten compounds from patent publication US4647564A, “Inotropic agents” (Eli Lilly and Company, priority 1986, dated 1987).

A value given as a limit tells only on which side of the number the result lay.

Broadly, the ED50 is the dose that gives a 50% effect, or the effect in half of the subjects.

For one experiment, the system named is Cat papillary muscles. The experiment can be described thus: Positive inotropic activity in isolated cat papillary muscles. Type of experiment: cell-based. The conditions noted are these: Felis catus, control = 100 percent, average of 2 to 8 muscles, read-out: Contractility of papillary muscle, peak response; for activity at 100 µM: 10^-4 M; for activity at 10 µM: 10^-5 M. The source says:
(§1) The compounds of Formula I are particularly useful as inotropic agents due to their potency, long action of effect, and oral efficacy and are therefore useful in the treatment and prevention of heart failure. For example, the compounds of this invention were examined as to their pharmacodynamic effects on the following test systems. For comparison, 1,3-dihydro-5-(1,4,5,6-tetrahydro-6-oxo-3-pyridazinyl)-2H-indol-2-one (Compound A) and 4,4-dimethyl-1,2,3,4-tetrahydro-6-(1,4,5,6-tetrahydro-6-oxo-3-pyridazinyl)quinolin-2-one (Compound B) as taught in U.S. Pat. No. 4,258,185 (although named somewhat differently), were also tested.
Cats of either sex were anesthetized with Metofane (1,1-difluoro-2,2-dichloroethyl methyl ether, Pittman-Moore). Their hearts were immediately removed and the papillary muscles dissected and suspended in individual organ baths. A platinum hook secured one end of the muscle to an electrode mounted in the bottom of the bath, and a silk thread attached the tendon to a Statham isometric transducer. The baths contained Krebs-Henseleit solution (36° C., bubbled with 95 percent oxygen--5 percent carbon dioxide) of the following millimolar composition: NaCl, 118; KCl, 4.5; CaCl2, 2.5; KH2 PO4, 1.1; MgSO4, 1.2; NaHCO3, 25; and glucose, 11.
A base-line tension of 1.5 g was applied to each muscle. Square-wave pulses (5.0 msec. in duration, three times threshold voltage) delivered through the hook electrode and a second electrode positioned near the top of the muscle evoked 12 contractions/minute, which were recorded on a Grass polygraph. After the muscles had equilibrated for 60 minutes, the recorder gain was adjusted so that the pen deflected 10 mm. The test compound was introduced in a solution of normal saline in an amount to bring the final concentration of the compound to 10^-5 or 10^-4 molar. Increases in contractility were tabulated as millimeters of pen deflection in excess of the baseline value. In each experiment the maximum contractility was measured. Test results are summarized in Table I and are expressed as percent of control (control=100 percent). Values are the average of results from 2 to 8 muscles.

In experiment [1] the test system is Ventricular contractility in the anesthetized dog. Kind of experiment: Ventricular contractility in the anesthetized dog (i.v.). In kind it is in vivo. The conditions noted are these: Canis lupus familiaris, iv, i.v. bolus, by interpolation, read-out: ED50 (dose required to produce a peak increase in contractility of 50%).
Source text: as §1
Mongrel dogs of either sex ranging in weight for 7 to 14 kg were used. Anesthesia was induced with sodium pentobarbital (30 mg/kg, i.v.) and maintained with supplemental doses as required. A positive-pressure pump was used to ventilate the dogs through an endotracheal tube (18 strokes/minute, 20 ml/kg stroke^-1), and a heating pad kept the body temperature at 37°-38° C.
Femoral arterial blood pressure was measured through a polyethylene catheter filled with heparin solution (16 units/ml) and connected to a Statham pressure transducer. A strain-gauge arch sutured to the right ventricle of the heart measured cardiac contractility. Tension on the gauge was adjusted to 50 g and the gain of the recorder (Beckman dynograph) was set so that 50 g caused a 10-mm pen deflection. Cardiac contractile tension was measured as millimeters of pen deflection or grams of tension. The test compounds were administered as an i.v. bolus (2-5 ml) in a normal saline vehicle following a 30-45 minute equilibrium period. […] The maximum effects on contractility at various dose levels were determined and plotted and the dose required to produce a 50 % increase in contractility (ED50) was determined by interpolation.

The test system of experiment [2] is Ventricular contractility in the conscious dog. Kind of experiment: Ventricular contractility in the conscious dog (oral). In kind it is in vivo. The settings on record: Canis lupus familiaris, oral (gelatin capsules), by interpolation, read-out: ED50 (dose required to produce a peak increase in contractility of 50%).
Source text: as §1
Mongrel dogs of either sex weighing 15-36 kg were chronically instrumented to monitor peak systolic pressure, heart rate, left ventricular pressure and its first derivative, LVdP/dt at 60 mm of mercury. Under halothane-nitrous oxide anesthesia, a precalibrated Konigsberg P22 Pressure Transducer was implanted into the left ventricle through a stab wound at the apex. Following recovery from surgery, a minimum of two weeks was allowed to train the dogs to lie quietly for four-hour periods. This conditioning was necessary to obtain stable, reproducible results from day to day. Dogs were fasted eighteen hours before an experiment. Gross behavioral observations of animals were made throughout each study. Compounds or placebo (lactose) were administered in gelatin capsules. The maximum effects on contractility at various dose levels were determined and plotted and the dose required to produce a 50-percent increase in contractility (ED50) was determined by interpolation.

With `O=C1CCC(c2ccc3c(c2)CC(=O)N3)=NN1` [Compound A, 1,3-dihydro-5-(1,4,5,6-tetrahydro-6-oxo-3-pyridazinyl)-2H-indol-2-one, reference compound], in the experiment on Cat papillary muscles, the activity at 100 µM is 152%. Besides, the activity at 10 µM with Cat papillary muscles amounted to 147%. Also, the values for the ED50 in experiment [1] and in experiment [2] were 0.01 mg/kg and 0.5 mg/kg, respectively.
The matching figures for `CC1(C)CC(=O)Nc2ccc(C3=NNC(=O)CC3)cc21` [Compound B, 4,4-dimethyl-1,2,3,4-tetrahydro-6-(1,4,5,6-tetrahydro-6-oxo-3-pyridazinyl)quinolin-2-one, reference compound]: 169%, 178%, 0.048 mg/kg and above 0.5 mg/kg.
Consider `CC1(C)C(=O)Nc2ccc(C3=NNC(=O)CC3)cc21` [Example 1, 1,3-Dihydro-3,3-dimethyl-5-(1,4,5,6-tetrahydro-6-oxo-3-pyridazinyl)-2H-indol-2-one], for which, in the experiment on Cat papillary muscles, the activity at 100 µM came to 208% and the activity at 10 µM is 202%. In experiment [1], the ED50 was found to be 0.005 mg/kg. In addition, the ED50 in experiment [2] was determined as 0.025 mg/kg.
Consider `CN1C(=O)C(C)(C)c2cc(C3=NNC(=O)CC3)ccc21` [Example 2, 1,3-Dihydro-1,3,3-trimethyl-5-(1,4,5,6-tetrahydro-6-oxo-3-pyridazinyl)-2H-indol-2-one], for which the ED50 in experiment [1] was 0.01 mg/kg; in experiment [2] it was above 0.4 mg/kg.
Take `CC1CC(=O)NN=C1c1ccc2c(c1)C(C)(C)C(=O)N2C` (stereo not shown) [Example 3, 1,3-Dihydro-1,3,3-trimethyl-5-(1,4,5,6-tetrahydro-4-methyl-6-oxo-3-pyridazinyl)-2H-indol-2-one]: the ED50 in experiment [1] turned out to be 0.005 mg/kg.
On the same count and under the same terms, in the case of `Cc1cc(C2=NNC(=O)CC2)cc2c1NC(=O)C2(C)C` [Example 4, 1,3-Dihydro-3,3,7-trimethyl-5-(1,4,5,6-tetrahydro-6-oxo-3-pyridazinyl)-2H-indol-2-one] it was 0.0085 mg/kg; in that of `Cc1cc2c(cc1C1=NNC(=O)CC1)C(C)(C)C(=O)N2` [Example 5, 1,3-Dihydro-3,3,6-trimethyl-5-(1,4,5,6-tetrahydro-6-oxo-3-pyridazinyl)-2H-indol-2-one], 0.02 mg/kg; in that of `CC1CC(c2ccc3c(c2)C(C)(C)C(=O)N3)=NNC1=O` (stereo not shown) [Example 6, 1,3-Dihydro-3,3-dimethyl-5-(1,4,5,6-tetrahydro-5-methyl-6-oxo-3-pyridazinyl)-2H-indol-2-one], 0.021 mg/kg.
As for `CC1CC(=O)NN=C1c1ccc2c(c1)C(C)(C)C(=O)N2` (stereo not shown) [Example 7, 1,3-Dihydro-3,3-dimethyl-5-(1,4,5,6-tetrahydro-4-methyl-6-oxo-3-pyridazinyl)-2H-indol-2-one], the values for the ED50 in experiment [1] and in experiment [2] were 0.0025 mg/kg and 0.05 mg/kg, respectively.
Take `CC1C(=O)Nc2ccc(C3=NNC(=O)CC3)cc21` (stereo not shown) [Example 8, 1,3-Dihydro-3-methyl-5-(1,4,5,6-tetrahydro-6-oxo-3-pyridazinyl)-2H-indol-2-one]: the ED50 worked out at 0.0063 mg/kg in experiment [1] and 0.025 mg/kg in experiment [2].
